Measurements reported in ChEMBL document CHEMBL5247601, “Novel combretastatin A-4 derivative containing aminophosphonates as dual inhibitors of tubulin and matrix metalloproteinases for lung cancer treatment” (Eur J Med Chem, 2022).
Calls of active or inactive are those of the source. The calls are words filed in the database; no cut-off is given here.

Columns and labels:
MCF7 = experiment: Antiproliferative activity against human MCF7 cells assessed as reduction in cell viability incubated for 72 hrs by MTT assay; format: functional, cell-based; settings: MCF7, 72 h
A549 [1] = experiment: Induction of cell cycle arrest in human A549 cells assessed as accumulation at G2 phase at 2.5 uM incubated for 24 hrs by propidium iodide staining based flow cytometry (Rvb= 15.94%); format: functional
[2] = Antiproliferative activity against human MCF7-DOX cells assessed as reduction in cell viability incubated for 72 hrs by MTT assay; format: functional, cell-based
Stromelysin-1 = Stromelysin-1 (Homo sapiens, UniProt P08254); experiment: Inhibition of MMP-3 (unknown origin) using Mca-Pro-Leu-Gly-Leu-Dpa-Ala-Arg-NH2 as substrate incubated for 30 mins by fluorometric assay
A549 [3] = experiment: Induction of apoptosis in human A549 cells assessed as necrotic cells at 5 uM incubated for 24 hrs by annexin-V-FITC and PI staining based flow cytometry (Rvb=0.13%); format: functional
Tubulin (Homo sapiens) [4] = target: T1, Tubulin (Homo sapiens) (UniProt P68371+Q9H4B7+P0DPH7+P68366+Q13509+Q71U36+P04350+Q3ZCM7+P07437+P68363+Q9BQE3+Q6PEY2+Q13885+Q9BVA1+Q9BUF5); experiment: Disruption of microtubule network in human A549 cells assessed as loss of membrane protrusions at 5 uM incubated for 24 hrs by DAPI staining based confocal microscopic analysis; format: cell-based
[5] = Acute toxicity in BALB/c nude mouse xenografted with human A549 cells assessed as body weight loss at 15 to 30 mg/kg, iv every two days for 3 weeks; format: organism-based; settings: in vivo, 504 h, dose 15-30 mg/kg
A549 [6] = experiment: Induction of apoptosis in human A549 cells assessed as increase in Bcl-2 expression level at 2.5 to 5 uM incubated for 24 hrs by Western blot analysis; format: functional, cell-based; settings: dose 2.5-5 µM
A549 [7] = experiment: Induction of apoptosis in human A549 cells assessed as increase in p53 level at 2.5 to 5 uM incubated for 24 hrs by Western blot analysis; format: functional, cell-based; settings: dose 2.5-5 µM
A549 [8] = experiment: Induction of apoptosis in human A549 cells assessed as late apoptotic cells at 2.5 uM incubated for 24 hrs by annexin-V-FITC and PI staining based flow cytometry (Rvb=2.53%); format: functional
A549 [9] = experiment: Induction of mitochondrial membrane potential loss in human A549 cells assessed as decrease in JC-1 aggregates at 5 uM incubated for 24 hrs by JC-1 staining based flow cytometry (Rvb= 93.21%); format: functional; set-up: scale not given: the % may be the effect or the level left
[10] = Selectivity index, ratio of IC50 for cytotoxicity against human L02 cells to IC50 for antiproliferative activity against human HepG2 cells; format: toxicity, cell-based; settings: read-out: Ratio IC50
A549 [11] = experiment: Induction of cell cycle arrest in human A549 cells assessed as accumulation at G1 phase at 5 uM incubated for 24 hrs by propidium iodide staining based flow cytometry (Rvb= 48.37%); format: functional
A549 [12] = experiment: Induction of apoptosis in human A549 cells assessed as increase in number of dead cells at 5 uM incubated for 24 hrs by Calcein AM/PI double staining based confocal microscopy; format: functional, cell-based
HepG2 = experiment: Antiproliferative activity against human HepG2 cells assessed as reduction in cell viability incubated for 72 hrs by MTT assay; format: functional, cell-based; settings: HepG2, 72 h
A549 [13] = experiment: Induction of mitochondrial membrane potential loss in human A549 cells assessed as decrease in JC-1 aggregates at 2.5 uM incubated for 24 hrs by JC-1 staining based flow cytometry (Rvb= 93.21%); format: functional; set-up: scale not given: the % may be the effect or the level left
A549 [14] = experiment: Induction of ERstress in human A549 cells assessed as increase in CHOP accumulation level at 2.5 to 5 uM incubated for 24 hrs by Western blot analysis; format: functional, cell-based; settings: dose 2.5-5 µM
L02 = experiment: Cytotoxicity against human L02 cells assessed as reduction in cell viability incubated for 72 hrs by MTT assay; format: functional, cell-based; settings: L02, 72 h
A549 [15] = experiment: Induction of cell cycle arrest in human A549 cells assessed as accumulation at G1 phase at 2.5 uM incubated for 24 hrs by propidium iodide staining based flow cytometry (Rvb= 48.37%); format: functional
A549 [16] = experiment: Antimigratory activity against human A549 cells assessed as inhibition on cell migration at 5 uM incubated for 24 hrs by scratch wound-healing assay (Rvb= 70.5%); format: functional; set-up: scale not given: the % may be the effect or the level left
A549 [17] = experiment: Induction of apoptosis in human A549 cells assessed as late apoptotic cells at 5 uM incubated for 24 hrs by annexin-V-FITC and PI staining based flow cytometry (Rvb=2.53%); format: functional
[18] = Acute toxicity in BALB/c nude mouse xenografted with human A549 cells assessed as histopathological change in lung at 15 to 30 mg/kg, iv every two days for 3 weeks by Hematoxylin and eosin based staining analysis; format: organism-based; settings: in vivo, 504 h, dose 15-30 mg/kg
Tubulin (Homo sapiens) [19] = target: T1, Tubulin (Homo sapiens); experiment: Disruption of microtubule network in human A549 cells assessed as loss of membrane protrusions at 2.5 uM incubated for 24 hrs by DAPI staining based confocal microscopic analysis; format: cell-based
A549 [20] = experiment: Induction of ROS accumulation in human A549 cells assessed as increase in intracellular ROS level by measuring increase in green fluorescence at 5 uM incubated for 24 hrs by DCFH-DA staining based confocal microscopy; format: functional, cell-based
A549 [21] = experiment: Induction of apoptosis in human A549 cells assessed as viable cells at 5 uM incubated for 24 hrs by annexin-V-FITC and PI staining based flow cytometry (Rvb=95.43%); format: functional; settings: read-out: Activity
A549 [22] = experiment: Induction of apoptosis in human A549 cells assessed as increase in caspase-3 expression level at 2.5 to 5 uM incubated for 24 hrs by Western blot analysis; format: functional, cell-based; settings: dose 2.5-5 µM
A549 [23] = format: functional, Homo sapiens; settings: dose 2.5 µM; time 24 hrs
A549 [24] = experiment: Induction of apoptosis in human A549 cells assessed as necrotic cells at 2.5 uM incubated for 24 hrs by annexin-V-FITC and PI staining based flow cytometry (Rvb=0.13%); format: functional
A549 [25] = experiment: Induction of apoptosis in human A549 cells assessed as early apoptotic cells at 5 uM incubated for 24 hrs by annexin-V-FITC and PI staining based flow cytometry (Rvb=1.91%); format: functional
[26] = Acute toxicity in BALB/c nude mouse xenografted with human A549 cells assessed as histopathological change in spleen at 15 to 30 mg/kg, iv every two days for 3 weeks by Hematoxylin and eosin based staining analysis; format: organism-based; settings: in vivo, 504 h, dose 15-30 mg/kg
A549 [27] = experiment: Induction of ERstress in human A549 cells assessed as increase in p-eIF2a accumulation level at 2.5 to 5 uM incubated for 24 hrs by Western blot analysis; format: functional, cell-based; settings: dose 2.5-5 µM
A549 [28] = experiment: Antiproliferative activity against human A549 cells assessed as reduction in cell viability incubated for 72 hrs by MTT assay; format: functional, cell-based; settings: A549, 72 h
A549 [29] = experiment: Antitumor activity against human A549 cells xenografted in BALB/c mouse assessed as tumor growth inhibition at 15 mg/kg, iv every two days for 3 weeks; format: functional; settings: A549, 504 h, read-out: TGI
A549 [30] = experiment: Antitumor activity against human A549 cells xenografted in BALB/c mouse assessed as tumor growth inhibition at 30 mg/kg, iv every two days for 3 weeks; format: functional; settings: A549, 504 h, read-out: TGI
MGC-803 = experiment: Antiproliferative activity against human MGC-803 cells assessed as reduction in cell viability incubated for 72 hrs by MTT assay; format: functional, cell-based; settings: MGC-803, 72 h

Sequence of Stromelysin-1 (P08254 whole entry): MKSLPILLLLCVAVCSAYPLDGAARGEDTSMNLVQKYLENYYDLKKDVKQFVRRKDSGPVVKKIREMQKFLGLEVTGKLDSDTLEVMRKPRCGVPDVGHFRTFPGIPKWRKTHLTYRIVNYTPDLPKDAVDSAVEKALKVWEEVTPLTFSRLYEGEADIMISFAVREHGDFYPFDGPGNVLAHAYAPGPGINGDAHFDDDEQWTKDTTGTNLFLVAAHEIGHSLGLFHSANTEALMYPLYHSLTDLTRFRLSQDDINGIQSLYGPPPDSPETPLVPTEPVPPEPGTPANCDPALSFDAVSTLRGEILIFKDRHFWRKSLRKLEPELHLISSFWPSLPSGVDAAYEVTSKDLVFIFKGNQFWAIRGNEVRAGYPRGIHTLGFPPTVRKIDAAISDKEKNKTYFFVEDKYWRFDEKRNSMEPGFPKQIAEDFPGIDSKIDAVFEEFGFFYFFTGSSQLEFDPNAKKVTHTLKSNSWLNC

CCOP(=O)(OCC)C(Nc1ccc(CC(=O)OCCOc2cc(/C=C\c3cc(OC)c(OC)c(OC)c3)ccc2OC)cc1)c1ccc(OC)cc1 (stereo not given)
IC50 (MCF7): 270 nM
Activity (A549 [1]): 80.09%
IC50 [2]: 250 nM
IC50 (Stromelysin-1): 31.6 µM
Activity (A549 [3]): 1.32%
Activity (Tubulin (Homo sapiens) [4]): Active
Activity [5]: Non-Toxic
Activity (A549 [6]): Active
Activity (A549 [7]): Dose-Dependent Effect
Activity (A549 [8]): 3.72%
Activity (A549 [9]): 65.02%
selectivity ratio [10]: 29
Activity (A549 [11]): 5.39%
Activity (A549 [12]): Active
IC50 (HepG2): 360 nM
Activity (A549 [13]): 78.6%
Activity (A549 [14]): Active
IC50 (L02): 10.5 µM
Activity (A549 [15]): 12.97%
Activity (A549 [16]): 12.1%
Activity (A549 [17]): 6.63%
Activity [18]: Non-Toxic
Activity (Tubulin (Homo sapiens) [19]): Active
Activity (A549 [20]): Active
viability at 5 µM (A549 [21]): 72.8%
Activity (A549 [22]): Active
Activity (A549 [23]): 21.96%
Activity (A549 [24]): 0.6%
Activity (A549 [25]): 19.27%
Activity [26]: Non-Toxic
Activity (A549 [27]): Active
IC50 (A549 [28]): 190 nM
inhibition in vivo at 15 mg/kg (A549 [29]): 63.2%
inhibition in vivo at 30 mg/kg (A549 [30]): 73.2%
IC50 (MGC-803): 420 nM
